Test results from ChEMBL document CHEMBL1127854, “Bromobenzofuran-based non-peptide antagonists of angiotensin II: GR138950, a potent antihypertensive agent with high oral bioavailability” (J Med Chem, 1994).

Tests used:
Angiotensin II receptor = target: T1, Angiotensin II receptor (Rattus norvegicus, UniProt P29089+P25095+P35351); assay: Tested for in vitro binding affinity against angiotensin II receptor of rat liver
T1 sequence (P29089 whole entry): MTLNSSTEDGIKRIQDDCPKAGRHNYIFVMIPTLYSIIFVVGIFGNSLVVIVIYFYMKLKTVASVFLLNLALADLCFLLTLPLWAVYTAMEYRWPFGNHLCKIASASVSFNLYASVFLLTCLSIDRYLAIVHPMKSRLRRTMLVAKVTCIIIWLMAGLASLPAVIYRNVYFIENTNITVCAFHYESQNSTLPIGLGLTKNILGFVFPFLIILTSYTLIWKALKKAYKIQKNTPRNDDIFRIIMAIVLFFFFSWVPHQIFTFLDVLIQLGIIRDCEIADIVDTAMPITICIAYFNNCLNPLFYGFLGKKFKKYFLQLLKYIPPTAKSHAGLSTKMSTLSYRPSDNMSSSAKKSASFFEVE
T1 sequence (P25095 whole entry): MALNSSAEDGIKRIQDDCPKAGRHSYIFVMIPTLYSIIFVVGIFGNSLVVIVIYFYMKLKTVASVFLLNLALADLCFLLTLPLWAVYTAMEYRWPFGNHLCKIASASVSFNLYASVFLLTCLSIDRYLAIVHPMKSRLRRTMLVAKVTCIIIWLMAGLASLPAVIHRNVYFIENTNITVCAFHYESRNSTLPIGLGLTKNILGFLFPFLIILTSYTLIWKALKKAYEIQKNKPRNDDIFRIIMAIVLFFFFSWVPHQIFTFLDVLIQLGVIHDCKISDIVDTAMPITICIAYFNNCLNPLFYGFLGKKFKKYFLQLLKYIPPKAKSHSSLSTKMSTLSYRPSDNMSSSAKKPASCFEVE
T1 sequence (P35351 whole entry): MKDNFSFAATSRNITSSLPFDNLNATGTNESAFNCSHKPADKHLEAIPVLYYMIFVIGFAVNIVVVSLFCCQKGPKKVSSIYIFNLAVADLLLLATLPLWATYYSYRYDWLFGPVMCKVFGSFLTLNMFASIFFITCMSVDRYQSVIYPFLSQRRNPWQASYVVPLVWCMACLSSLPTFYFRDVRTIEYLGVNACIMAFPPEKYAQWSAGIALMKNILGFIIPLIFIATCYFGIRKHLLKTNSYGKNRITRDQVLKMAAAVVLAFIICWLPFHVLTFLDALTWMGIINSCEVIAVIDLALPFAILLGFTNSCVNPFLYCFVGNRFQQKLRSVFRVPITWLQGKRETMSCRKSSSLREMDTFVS

Rattus norvegicus [1] = assay: […] antihypertensive activity in renal hypertensive rat at 0.5 mg/kg after 24 hr of oral administration.; type: functional
Rattus norvegicus [2] = assay: […] antihypertensive activity in renal hypertensive rat at 0.5 mg/kg after 7 hr of oral administration.; type: functional
Rattus norvegicus [3] = assay: […] antihypertensive activity in renal hypertensive rat at 0.5 mg/kg after 5 hr of oral administration.; type: functional
Rattus norvegicus [4] = assay: In vivo antihypertensive activity in renal hypertensive rat at 1.0 mg/kg after 5 hr of oral administration.
[5] = Bioavailability in dog (dose 3-10 mg/kg); type: ADME, organism-based, Canis lupus familiaris; settings: in vivo
[6] = The compound was tested for volume of distribution in dog at dose of 3-10 mgkg; type: ADME, organism-based, Canis lupus familiaris; settings: in vivo
[7] = The compound was tested for plasma clearance in dog at dose of 3-10 mgkg; type: ADME, organism-based, Canis lupus familiaris
[8] = Half-life in plasma of dog at dose of […]-[…] mgkg; type: ADME, organism-based, Canis lupus familiaris
Rattus norvegicus [9] = assay: Tested for […] antihypertensive activity in renal hypertensive rat at 1 mg/kg after 5 hr of oral administration; type: functional
Rattus norvegicus [10] = assay: Tested for […] antihypertensive activity in renal hypertensive rat at 1 mg/kg after 7 hr of oral administration; type: functional
Rattus norvegicus [11] = assay: Tested for […] antihypertensive activity in renal hypertensive rat at 1 mg/kg after 24 hr of oral administration; type: functional
[12] = The compound was tested for volume of distribution in dog; type: ADME, organism-based, Canis lupus familiaris; settings: in vivo
[13] = The compound was tested for plasma clearance in dog; type: ADME, organism-based, Canis lupus familiaris
[14] = Half-life in plasma of dog; type: ADME, organism-based, Canis lupus familiaris
[15] = The compound was tested for volume of distribution in rat at dose of 3-10 mgkg; type: ADME, organism-based; settings: in vivo
[16] = Bioavailability in rat (dose 3-10 mg/kg); type: ADME, organism-based; settings: in vivo
[17] = The compound was tested for plasma clearance in rat at dose of 3-10 mgkg; type: ADME, organism-based
[18] = Half-life in plasma of rat at dose of […]-[…] mgkg; type: ADME, organism-based
[19] = The compound was tested for volume of distribution in rat; type: ADME, organism-based; settings: in vivo
[20] = Bioavailability in rat; type: ADME, organism-based; settings: in vivo
[21] = Half-life in plasma of rat; type: ADME, organism-based
[22] = The compound was tested for plasma clearance in rat; type: ADME, organism-based

| SMILES | Log Ki (Angiotensin II receptor) | Activity (Rattus norvegicus [1]) | Activity (Rattus norvegicus [2]) | Activity (Rattus norvegicus [3]) | also measured |
| --- | --- | --- | --- | --- | --- |
| CCNC(=O)c1c(Cl)nc(CC)n1Cc1ccc2oc(-c3ccccc3NS(=O)(=O)C(F)(F)F)c(Br)c2c1 | -8.7 | -12 | -43 | -37 | – |
| CCc1nc(C2CC2)c(C(N)=O)n1Cc1ccc2oc(-c3ccccc3NS(=O)(=O)C(F)(F)F)c(C(F)(F)F)c2c1 | -9 | -17 | -49 | – | Activity (Rattus norvegicus [4]): -48 |
| CCCc1nc(Cl)c(C(=O)NCC)n1Cc1ccc2oc(-c3ccccc3NS(=O)(=O)C(F)(F)F)c(Br)c2c1 | -9 | -13 | -54 | -40 | – |
| CCc1nc(C2CC2)c(C(=O)NCC(C)C)n1Cc1ccc2oc(-c3ccccc3NS(=O)(=O)C(F)(F)F)c(Br)c2c1 | -9.9 | -47 | -70 | -63 | – |
| CCc1nc(Cl)c(C(N)=O)n1Cc1ccc2oc(-c3ccccc3NS(=O)(=O)C(F)(F)F)c(Br)c2c1 | -8.5 | -12 | -55 | -57 | – |
| CCNC(=O)c1c(C2CC2)nc(CC)n1Cc1ccc2oc(-c3ccccc3NS(=O)(=O)C(F)(F)F)c(Br)c2c1 | -9.2 | -14 | -63 | -53 | – |
| CCCc1nc(C)c(C(=O)NC)n1Cc1ccc2oc(-c3ccccc3NS(=O)(=O)C(F)(F)F)c(Br)c2c1 | -9 | -12 | -50 | -30 | – |
| CCCCc1nc(Cl)c(C(=O)NC)n1Cc1ccc2oc(-c3ccccc3-c3nn[nH]n3)c(Br)c2c1 | – | – | – | – | bioavailability [5]: 36%; Vd [6]: 0.3 L/kg; clearance [7]: 11 mL/min/kg; half-life [8]: 30 min |
| CCCCc1nc(Cl)c(C(=O)NC)n1Cc1ccc2oc(-c3ccccc3NS(=O)(=O)C(F)(F)F)c(Br)c2c1 | -8.8 | – | – | – | Activity (Rattus norvegicus [9]): -40; Activity (Rattus norvegicus [10]): -45; Activity (Rattus norvegicus [11]): 7 |
| CCOC(=O)c1c(C)nc(CC)n1Cc1ccc2oc(-c3ccccc3-c3nn[nH]n3)c(Br)c2c1 | – | – | – | – | bioavailability [5]: 70%; Vd [6]: 2 L/kg; clearance [7]: ~100 mL/min/kg; half-life [8]: 12 min |
| CCc1c(-c2ccccc2NS(=O)(=O)C(F)(F)F)oc2ccc(Cn3c(CC)nc(C4CC4)c3C(N)=O)cc12 | -8.8 | -2 | -42 | -37 | – |
| CCc1nc(C2CC2)c(C(N)=O)n1Cc1ccc2oc(-c3ccccc3NS(=O)(=O)C(F)(F)F)c(Br)c2c1 | -9.3 | -38 | -76 | -66 | Vd [12]: 0.9 L/kg; clearance [13]: 1.6 mL/min/kg; half-life [14]: 558 min |
| CCc1nc(CC(C)C)c(C(N)=O)n1Cc1ccc2oc(-c3ccccc3NS(=O)(=O)C(F)(F)F)c(Br)c2c1 | -7.7 | -8 | -19 | -4 | – |
| CCc1nc(C)c(C(=O)O)n1Cc1ccc2oc(-c3ccccc3-c3nn[nH]n3)c(Br)c2c1 | – | – | – | – | bioavailability [5]: 8%; Vd [6]: 2 L/kg; clearance [7]: 6 mL/min/kg; half-life [8]: 240 min |
| CCCc1nc(Cl)c(C(N)=O)n1Cc1ccc2oc(-c3ccccc3NS(=O)(=O)C(F)(F)F)c(Br)c2c1 | -8.7 | 9 | -28 | -19 | – |
| CCc1nc(C2CC2)c(C(N)=O)n1Cc1ccc2oc(-c3ccccc3NS(=O)(=O)C(F)(F)F)cc2c1 | -7 | 7 | -16 | -18 | – |
| CCCCc1nc(Cl)c(CO)n1Cc1ccc2oc(-c3ccccc3-c3nn[nH]n3)c(Br)c2c1 | – | – | – | – | Vd [15]: 1.3 L/kg; bioavailability [16]: 37%; clearance [17]: 18 mL/min/kg; half-life [18]: 60 min |
| CCCc1nc(Cl)c(C(=O)NC)n1Cc1ccc2oc(-c3ccccc3NS(=O)(=O)C(F)(F)F)c(Br)c2c1 | -8.9 | -19 | -61 | -67 | – |
| CCNC(=O)c1c(C2CC2)nc(CC)n1Cc1ccc2oc(-c3ccccc3C(=O)O)c(Br)c2c1 | -8.6 | – | – | – | Activity (Rattus norvegicus [9]): 6; Activity (Rattus norvegicus [10]): 0; Activity (Rattus norvegicus [11]): 4 |
| CCc1nc(Cl)c(C(=O)NC)n1Cc1ccc2oc(-c3ccccc3NS(=O)(=O)C(F)(F)F)c(Br)c2c1 | -8.6 | -4 | -31 | -30 | – |
| CCc1nc(C2CC2)c(C(N)=O)n1Cc1ccc2oc(-c3ccccc3NS(=O)(=O)C(F)(F)F)c(Cl)c2c1 | -8.9 | -42 | -60 | – | Activity (Rattus norvegicus [4]): -57 |
| CCCc1nc(C)c(C(=O)NCC)n1Cc1ccc2oc(-c3ccccc3NS(=O)(=O)C(F)(F)F)c(Br)c2c1 | -9.5 | -30 | -48 | -33 | Vd [19]: 11 L/kg; bioavailability [20]: 90%; half-life [21]: 270 min; clearance [22]: 29 mL/min/kg |
| CNC(=O)c1c(C)nc(C)n1Cc1ccc2oc(-c3ccccc3NS(=O)(=O)C(F)(F)F)c(Br)c2c1 | -7.5 | -3 | 0 | 6 | – |
| CCc1nc(C2CC2)c(C(=O)NC)n1Cc1ccc2oc(-c3ccccc3NS(=O)(=O)C(F)(F)F)c(Br)c2c1 | -9.4 | -9 | -52 | -60 | – |
| CCCCc1nc(Cl)c(CO)n1Cc1ccc(-c2ccccc2-c2nnn[nH]2)cc1 [LOSARTAN] | – | -36 | -41 | -30 | – |
| CCCCc1nc(Cl)c(C(=O)O)n1Cc1ccc2oc(-c3ccccc3-c3nn[nH]n3)c(Br)c2c1 [ZOLASARTAN] | – | – | – | – | bioavailability [5]: 9%; Vd [6]: 1.2 L/kg; clearance [7]: 6 mL/min/kg; half-life [8]: 150 min |

Now from value to compound, other results behind:

| Log Ki (Angiotensin II receptor) | SMILES | Activity (Rattus norvegicus [1]) | Activity (Rattus norvegicus [2]) | Activity (Rattus norvegicus [3]) | also measured |
| --- | --- | --- | --- | --- | --- |
| -9.1 | CCc1nc(CC)n(Cc2ccc3oc(-c4ccccc4NS(=O)(=O)C(F)(F)F)c(Br)c3c2)c1C(N)=O | -17 | -38 | -35 | – |
| -9.1 | CCCc1nc(C)c(C(N)=O)n1Cc1ccc2oc(-c3ccccc3NS(=O)(=O)C(F)(F)F)c(Br)c2c1 | -8 | -37 | -38 | – |
| -8.4 | CCc1nc(C(C)C)c(C(N)=O)n1Cc1ccc2oc(-c3ccccc3NS(=O)(=O)C(F)(F)F)c(Br)c2c1 | -13 | -22 | -21 | – |
| -8.5 | CCc1nc(C)c(C(=O)NC)n1Cc1ccc2oc(-c3ccccc3NS(=O)(=O)C(F)(F)F)c(Br)c2c1 | -6 | -54 | -43 | – |
| -8.6 | CCc1nc(C)c(C(=O)N(C)C)n1Cc1ccc2oc(-c3ccccc3NS(=O)(=O)C(F)(F)F)c(Br)c2c1 | 1 | 2 | 1 | – |
| -9.4 | CCNC(=O)c1c(C2CC2)nc(CC)n1Cc1ccc2oc(-c3ccccc3-c3nn[nH]n3)c(Br)c2c1 | -1 | -9 | -8 | – |
| -8.9 | CCNC(=O)c1c(C)nc(CC)n1Cc1ccc2oc(-c3ccccc3NS(=O)(=O)C(F)(F)F)c(Br)c2c1 | 4 | -33 | -17 | – |
| -8.9 | CCc1nc(C)c(C(N)=O)n1Cc1ccc2oc(-c3ccccc3NS(=O)(=O)C(F)(F)F)c(Br)c2c1 | -3 | -61 | -40 | – |
